Data on six compounds can be found in ChEMBL document CHEMBL3227972, “Correlation of carbonic anhydrase inhibitory activities of benzenesulfonamides with the data obtained by use of nitrogen-14 nuclear quadrupole resonance” (J Med Chem, 1979).

The structures appear in SMILES notation.

The species named for the experiment is Homo sapiens. The experiment is described as follows: Inhibition of carbonic anhydrase (unknown origin) relative to sulfanilamide.
Take `Nc1cccc(S(N)(=O)=O)c1`: the fold change (FC) turned out to be 2.5. In the case of `Cc1ccccc1S(N)(=O)=O` it was 1.8. As for `Nc1ccc(S(N)(=O)=O)cc1`, the figure is 1. In the case of `NS(=O)(=O)c1ccc([N+](=O)[O-])cc1` it was 23. Compound `NS(=O)(=O)c1ccc(Cl)cc1` came in with a fold change (FC) of 18.

As for `NS(=O)(=O)c1ccccc1`, the fold change (FC) turned out to be 4.
